{
  "source": "paper PMC9757750",
  "about": "(Science Advances, 2022)",
  "target": "LegA15 (Legionella pneumophila, UniProt Q5ZSR1)",
  "sequence (Q5ZSR1 1-471)": "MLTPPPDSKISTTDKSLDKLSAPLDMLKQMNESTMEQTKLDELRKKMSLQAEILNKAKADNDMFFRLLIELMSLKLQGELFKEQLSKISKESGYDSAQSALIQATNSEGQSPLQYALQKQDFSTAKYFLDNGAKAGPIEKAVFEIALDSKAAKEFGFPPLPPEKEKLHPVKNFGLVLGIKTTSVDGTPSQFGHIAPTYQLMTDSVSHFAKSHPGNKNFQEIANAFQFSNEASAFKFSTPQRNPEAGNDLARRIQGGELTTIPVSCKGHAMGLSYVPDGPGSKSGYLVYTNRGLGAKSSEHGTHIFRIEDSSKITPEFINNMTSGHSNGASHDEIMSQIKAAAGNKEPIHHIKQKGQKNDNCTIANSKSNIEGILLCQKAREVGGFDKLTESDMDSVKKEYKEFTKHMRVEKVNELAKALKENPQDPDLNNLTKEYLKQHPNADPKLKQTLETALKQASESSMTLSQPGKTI",
  "test": "biochemical",
  "note": "pKd: −log10 of the molar value.",
  "data": [
    {"smiles": "Nc1nc2c(ncn2[C@@H]2O[C@H](COP(=O)(O)OP(=O)(O)O)[C@@H](O)[C@H]2O)c(=O)[nH]1", "note": "[GDP]", "values": [
      {"measurement": "pKd", "result": 4.69}
    ]},
    {"smiles": "Nc1nc2c(ncn2[C@@H]2O[C@H](COP(=O)(O)OP(=O)(O)OP(=O)(O)O)[C@@H](O)[C@H]2O)c(=O)[nH]1", "note": "[GTP]", "values": [
      {"measurement": "pKd", "result": 5.86}
    ]}
  ]
}
